Results reported in PubChem BioAssay AID1963872 (Molecular Pharmacology Branch, DTP, NCI, 2024).

Test system: KRAS patient-derived spheroids with HUVEC/MSC, viability
Assay: Anticancer human tumor 519858-162-T-J1-PDC patient-derived colon adenocarcinoma cell line growth inhibition [KRAS2]
Conditions: for IC50: curve of first compound; for viability, T/C: stronger effect = lower value
Method in brief: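 KRAS-mutant tumor cells were grown as spheroids with HUVEC endothelial cells and human MSCs as stroma. Targeted agents were tested alone and with KRAS pathway inhibitors. Doses started at or near clinical Cmax, or 10 microM, descending half-log.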

[1] = second compound 0.1 µM, first compound 0.0316 µM
[2] = second compound 0.1 µM, first compound 0.1 µM
[3] = second compound 0.1 µM, first compound 0.316 µM
[4] = second compound 0.1 µM, first compound 1 µM
[5] = second compound 0.1 µM, first compound 3.16 µM
[6] = second compound 0.1 µM, first compound 10 µM
[7] = second compound 0.316 µM, first compound 0.0316 µM
[8] = second compound 0.316 µM, first compound 0.1 µM
[9] = second compound 0.316 µM, first compound 0.316 µM
[10] = second compound 0.316 µM, first compound 1 µM
[11] = second compound 0.316 µM, first compound 3.16 µM
[12] = second compound 0.316 µM, first compound 10 µM
[13] = second compound 1 µM, first compound 0.0316 µM
[14] = second compound 1 µM, first compound 0.1 µM
[15] = second compound 1 µM, first compound 0.316 µM
[16] = second compound 1 µM, first compound 1 µM
[17] = second compound 1 µM, first compound 3.16 µM
[18] = second compound 1 µM, first compound 10 µM
[19] = second compound 3.16 µM, first compound 0.0316 µM
[20] = second compound 3.16 µM, first compound 0.1 µM
[21] = second compound 3.16 µM, first compound 0.316 µM
[22] = second compound 3.16 µM, first compound 1 µM
[23] = second compound 3.16 µM, first compound 3.16 µM
[24] = second compound 3.16 µM, first compound 10 µM
[25] = second compound 10 µM, first compound 0.0316 µM
[26] = second compound 10 µM, first compound 0.1 µM
[27] = second compound 10 µM, first compound 0.316 µM
[28] = second compound 10 µM, first compound 1 µM
[29] = second compound 10 µM, first compound 3.16 µM
[30] = second compound 10 µM, first compound 10 µM
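Also: compound exposure lasted seven days before readout.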
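For viability, T/C in this document: 100% = DMSO vehicle control viability.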

Compound	IC50 (second compound 0.1 µM) [µM]	IC50 (second compound 0.316 µM) [µM]	IC50 (second compound 1 µM) [µM]	IC50 (second compound 3.16 µM) [µM]	viability, T/C [1] [%]	viability, T/C [2] [%]	viability, T/C [3] [%]	viability, T/C [4] [%]	viability, T/C [5] [%]	viability, T/C [6] [%]	viability, T/C [7] [%]	viability, T/C [8] [%]	viability, T/C [9] [%]	viability, T/C [10] [%]	viability, T/C [11] [%]	viability, T/C [12] [%]	viability, T/C [13] [%]	viability, T/C [14] [%]	viability, T/C [15] [%]	viability, T/C [16] [%]	also measured
COc1cc2nccc(Oc3ccc(NC(=O)C4(C(=O)Nc5ccc(F)cc5)CC4)cc3)c2cc1OC + C=CC(=O)N1CCN(c2nc(OCC3CCCN3C)nc3c2CCN(c2cccc4cccc(C)c24)C3)CC1CC#N	> 10	> 10	> 10	4.78	85.2	98.3	80.3	77.9	77.2	84.5	109	82.5	109	99.1	98.5	132	71.5	74.5	77.6	76.8	IC50 (second compound 0.0316 µM): > 10 µM; viability, T/C (second compound 0.0316 µM, first compound 0.0316 µM): 73.6%; viability, T/C (second compound 0.0316 µM, first compound 0.1 µM): 99.7%; viability, T/C (second compound 0.0316 µM, first compound 0.316 µM): 91.6%; viability, T/C (second compound 0.0316 µM, first compound 1 µM): 78.1%; viability, T/C (second compound 0.0316 µM, first compound 3.16 µM): 103%; viability, T/C (second compound 0.0316 µM, first compound 10 µM): 122%; viability, T/C [17]: 104%; viability, T/C [18]: 145%; viability, T/C [19]: 77.6%; viability, T/C [20]: 72.2%; viability, T/C [21]: 69.5%; viability, T/C [22]: 74.8%; viability, T/C [23]: 93.5%; viability, T/C [24]: 0.86%
CC1(C)CCC(CN2CCN(c3ccc(C(=O)NS(=O)(=O)c4ccc(NCC5CCOCC5)c([N+](=O)[O-])c4)c(Oc4cnc5[nH]ccc5c4)c3)CC2)=C(c2ccc(Cl)cc2)C1 + CNCc1ccccc1-c1csc(C(C)Nc2nc(C)nc3cc(OC)c(OC)cc23)c1	> 10	> 10	2.87	0.0316	69.5	86.8	92.7	68	69.9	60.4	67.5	78.4	78.4	80.8	68.3	60.1	74	78.9	84.5	101	IC50 (second compound 10 µM): < 0.0316 µM; viability, T/C [17]: 46.8%; viability, T/C [18]: 27.6%; viability, T/C [19]: 38.8%; viability, T/C [20]: 45.8%; viability, T/C [21]: 48.2%; viability, T/C [22]: 67%; viability, T/C [23]: 41.7%; viability, T/C [24]: 15.5%; viability, T/C [25]: 0.32%; viability, T/C [26]: 0.34%; viability, T/C [27]: 0.37%; viability, T/C [28]: 0.27%; viability, T/C [29]: 0.28%; viability, T/C [30]: 0.35%
COc1cc2nccc(Oc3ccc(NC(=O)C4(C(=O)Nc5ccc(F)cc5)CC4)cc3)c2cc1OC + CC1OCC2(CCN(c3cnc(Sc4ccnc(N)c4Cl)c(N)n3)CC2)C1N	> 10	> 10	> 10	> 10	68.4	72.7	83.2	84.7	94	130	64.3	62.7	78.9	92.6	150	96.4	64.4	74.4	90	93.1	IC50 (second compound 10 µM): > 10 µM; viability, T/C [17]: 143%; viability, T/C [18]: 85.8%; viability, T/C [19]: 57.9%; viability, T/C [20]: 68.1%; viability, T/C [21]: 88.5%; viability, T/C [22]: 71.9%; viability, T/C [23]: 80.7%; viability, T/C [24]: 99.4%; viability, T/C [25]: 78.2%; viability, T/C [26]: 92.5%; viability, T/C [27]: 110%; viability, T/C [28]: 103%; viability, T/C [29]: 107%; viability, T/C [30]: 70.6%
